In patent US20200277262A1, “N-(CYANO-SUBSTITUTED BENZYL OR PYRIDINYLMETHYL)-3-HYDROXYPICOLINAMIDE DERIVATIVES” (Takeda Pharmaceutical Company Limited, priority 2017, published 2020):

Columns and labels:
[1] = system: HIF1a protein content in H9c2 rat cardiomyocytes; experiment: Cell-based HIF-α Stabilization Assay (HIF1a ELISA); details: H9c2 cells, 24 hours compound incubation, concentration giving 50% of desferrioxamine maximum response, -log(EC50), EC50 molar, read-out: Stabilization of HIF-α (pEC50) (converted)
Experimental: H9c2 rat cardiomyocytes (ATCC) were seeded in 96-well tissue culture microplates and cultured for 24 hours prior to addition of compounds (11 point range of serial dilutions) or DMSO vehicle. After 24 hours of compound incubation, whole cell extracts were prepared by lysing cells in cell extraction buffer containing protease and phosphatase inhibitors (Meso-Scale Discovery). HIF1a protein content was assessed by ELISA (Meso-Scale Discovery) and expressed as % relative to the maximum response obtained from the positive control, desferrioxamine (Sigma-Aldrich). EC50 for each compound was obtained by curve-fitting using XLfit4 MicroSoft Excel curve-fitting software to calculate the compound concentration that results in 50% of the desferrioxamine maximum response.
(§1) Table 1 lists biological data for some of the compounds shown in the examples, where larger pIC50 and pEC50 values represent higher potency or activity, respectively. The IC50 data (reported in Table 1 as pIC50) were obtained using the enzyme-based assay described in the specification under the heading “Inhibition of PHD2 Enzyme.” The EC50 data (reported in Table 1 as pEC50) were obtained using the cell-based assay described in the specification under the heading “Cell-based HIF-α Stabilization Assay.”

[2] = biological target: T1, PHD2 enzyme (residues 181-417) (Homo sapiens, UniProt Q9GZT9); experiment: Inhibition of PHD2 Enzyme (LC/MS detection of hydroxylated peptide); assay type: biochemical; details: 5 nM enzyme, 1 μM biotin-labeled peptide, 2 μM 2-oxoglutarate, 60 min pre-incubation, pH 7.3; -log(IC50), IC50 molar; read-out: Inhibition of PHD2 (pIC50) (converted)
T1 construct: The IC50 values for the PHD2 enzyme (residues 181-417) were determined
Experimental: The IC50 values for the PHD2 enzyme (residues 181-417) were determined by mixing increasing amounts of an inhibitor with a fixed amount of enzyme (5 nM, final concentration) and Biotin-labeled peptide (Biotin-Asp-Leu-Glu-Met-Leu-Ala-Pro-Tyr-Ile-Pro-Met-Asp-Asp-Asp-Phe-Gln-Leu, 1 μM final concentration) and 2-oxyglutarate (2 μM final concentration) in 50 mM HEPES, 50 mM KCl, 0.5 mM TCEP, 2 μM FeCl2, 0.1 mg/mL BSA, at pH 7.3. The reaction was conducted by pre-incubating the enzyme in the presence of the inhibitor for 60 minutes at room temperature. The activity of the free enzyme was measured by adding the peptide, the 2-oxoglutarate, and ascorbic acid (1 mM final concentration). The enzymatic activity was quenched after 60 minutes by adding an excess of a tight binding inhibitor to the assay mixture. The amount of product released was measured by using a LC/MS system (Agilent HPLC with Applied Biosystems API3000 Mass Spectrometer). Data were analyzed using the classical isotherm equation for the determination of IC50 values and are reported in Table 1, below, as pIC50, i.e., −log(IC50), where IC50 is molar concentration of the test compound at 50% inhibition.
as §1

T1 sequence (Q9GZT9 181-417): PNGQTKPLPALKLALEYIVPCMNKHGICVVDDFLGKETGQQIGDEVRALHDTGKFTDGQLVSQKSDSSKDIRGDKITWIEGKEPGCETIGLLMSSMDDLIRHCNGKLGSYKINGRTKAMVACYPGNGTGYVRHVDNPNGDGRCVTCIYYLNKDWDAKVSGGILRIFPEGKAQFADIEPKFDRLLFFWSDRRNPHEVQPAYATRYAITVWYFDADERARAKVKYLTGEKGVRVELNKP

IC50 [2] [nM]	Structure (SMILES)	EC50 [1] [nM]
1580	CC(NC(=O)c1ncccc1O)c1ccc(C#N)cc1 (stereo not drawn) [Example 39, N-(1-(4-cyanophenyl)ethyl)-3-hydroxypicolinamide]	50100
20	Cc1cc(C#N)ccc1CNC(=O)c1ncccc1O [Example 4, N-(4-cyano-2-methylbenzyl)-3-hydroxypicolinamide]	7940
3980	N#Cc1ccc(CNC(=O)c2ncccc2O)c(C(F)(F)F)c1 [Example 7, N-(4-cyano-2-(trifluoromethyl)benzyl)-3-hydroxypicolinamide]	–
39.8	N#Cc1ccc2c(c1)OCC2NC(=O)c1ncccc1O (stereo not drawn) [Example 22, N-(6-cyano-2,3-dihydrobenzofuran-3-yl)-3-hydroxypicolinamide]	7940
12.6	Cc1c(CNC(=O)c2ncccc2O)ccc(C#N)c1F [Example 14, N-(4-cyano-3-fluoro-2-methylbenzyl)-3-hydroxypicolinamide]	12600
3160	N#Cc1cccc(CNC(=O)c2ncccc2O)c1 [Example 2, N-(3-cyanobenzyl)-3-hydroxypicolinamide, reference compound]	–
12.6	N#Cc1ccc2c(c1)CC[C@H]2NC(=O)c1ncccc1O [Example 20, (R)—N-(5-cyano-2,3-dihydro-1H-inden-1-yl)-3-hydroxypicolinamide]	–
15.8	Cc1cc(C#N)c(F)cc1CNC(=O)c1ncccc1O [Example 13, N-(4-cyano-5-fluoro-2-methylbenzyl)-3-hydroxypicolinamide]	10000
25.1	N#Cc1ccc(CNC(=O)c2ncccc2O)c(Cl)c1 [Example 15, N-(2-chloro-4-cyanobenzyl)-3-hydroxypicolinamide]	12600
1000	N#Cc1ccc(CNC(=O)c2ncccc2O)cn1 [Example 3, N-((6-cyanopyridin-3-yl)methyl)-3-hydroxypicolinamide]	–

The next lines start with the molecule.

Structure (SMILES)	IC50 [2] [nM]	EC50 [1] [nM]
Cc1cnc(C(=O)N[C@@H]2CCc3cc(C#N)ccc32)c(O)c1 [Example 23, (R)—N-(5-cyano-2,3-dihydro-1H-inden-1-yl)-3-hydroxy-5-methylpicolinamide]	31.6	7940
COCCCNc1cnc(C(=O)NCc2c(C)cc(C#N)cc2C)c(O)c1 [Example 40, N-(4-cyano-2,6-dimethylbenzyl)-3-hydroxy-5-((3-methoxypropyl)amino)picolinamide]	31.6	2510
Cc1cnc(C(=O)NCc2c(C)cc(C#N)cc2C)c(O)c1 [Example 11, N-(4-cyano-2,6-dimethylbenzyl)-3-hydroxy-5-methylpicolinamide]	31.6	7940
Cc1cc(C#N)ccc1CNC(=O)c1ncc(C(F)(F)F)cc1O [Example 37, N-(4-cyano-2-methylbenzyl)-3-hydroxy-5-(trifluoromethyl)picolinamide]	251	–
COc1cnc(C(=O)NCc2c(C)cc(C#N)cc2C)c(O)c1 [Example 29, N-(4-cyano-2,6-dimethylbenzyl)-3-hydroxy-5-methoxypicolinamide]	10	1580
N#Cc1ccc2c(c1)CC[C@H]2NC(=O)c1ncc(Cl)cc1O [Example 31, (R)-5-chloro-N-(5-cyano-2,3-dihydro-1H-inden-1-yl)-3-hydroxypicolinamide]	31.6	25100
Cc1cc(C#N)ccc1CNC(=O)c1ncc(F)cc1O [Example 35, N-(4-cyano-2-methylbenzyl)-5-fluoro-3-hydroxypicolinamide]	20	25100
N#Cc1ccc(CNC(=O)c2ncc(C#N)cc2O)cc1 [Example 16, 5-cyano-N-(4-cyanobenzyl)-3-hydroxypicolinamide]	251	6310
Cc1cc(C#N)ccc1CNC(=O)c1ncc(Cl)cc1O [Example 36, 5-chloro-N-(4-cyano-2-methylbenzyl)-3-hydroxypicolinamide]	39.8	25100
